# Measured values from ChEMBL document CHEMBL2094269, “WEHI/Eskitis Trypanosoma b. brucei screening data”.
# Experiments:
# [1] = test system: Trypanosoma brucei brucei; test: microbe, parasite or virus in culture; format: functional, organism-based, STIB 795; details: Trypanosoma brucei, STIB 795
# Description: DNDI: Inhibition of Human African Trypanosomiasis (HAT), STIB 795, in vitro
# [2] = DNDI: Cytotoxicity against human MRC-5 lung fibroblast cells.; details: IC50
Structure (SMILES),IC50 [1],IC50 [2]
COc1ccc(C(=O)O/N=C(\N)c2ccccn2)c(OC)c1,4.49 µM,> 20.8 µM
CCOC(=O)c1ccc(Nc2nnc(C(C)(C)C)c(O)n2)cc1,10.2 µM,> 41.7 µM
COc1ccccc1NC(=O)c1cc(Cl)nnc1Cl,5.44 µM,> 20.8 µM
Cc1ccc(C(=O)O/N=C(\N)Cc2cccs2)c(Cl)c1,0.768 µM,> 41.7 µM
CC(C)(C)c1ccc(OCCCCCCN2CCNCC2)cc1,0.734 µM,> 20.8 µM
CCN(CC)CCn1nc2c3c(cccc3c1=O)-c1ccccc1-2,1.58 µM,1.46 µM
CCOC(=O)C(=Cc1cc(=O)c(OC)co1)C(=O)OCC,5.5 µM,> 20.8 µM
Cn1c(Cl)cnc1C1CC(=O)c2cc(Cl)ccc2O1 (stereo not drawn),0.81 µM,> 41.7 µM
N=C(NOC(=O)C12CC3CC(CC(C3)C1)C2)c1ccccc1,0.322 µM,> 20.8 µM
CCCC(=O)Nc1ccc(Cl)c(-c2nc3ncccc3o2)c1,0.851 µM,> 41.7 µM
NCC12CC3CC(C1)CC(c1ccc(Br)cc1)(C3)C2,0.687 µM,6.72 µM
CC[n+]1c(/C=C/c2c[nH]c3ccccc23)ccc2cc(C)ccc21,0.294 µM,3.71 µM
NCCc1c(-c2ccccc2)n(-c2ccccc2)c2ccccc12,1.49 µM,> 20.8 µM
COc1ccc(C(=O)O/N=C(\N)Cc2cccs2)cc1OC,1.61 µM,> 20.8 µM
CCN(CC)c1ccc(/C=N/NC(=O)c2cccs2)c(O)c1,12.6 µM,> 41.7 µM
Cc1cccc2cc(-c3ccccc3)c(N3CCNCC3)nc12,1.45 µM,> 4.17 µM
COc1ccc(C(C)(C)C#Cc2c(C)nc(N)nc2N)cc1,≤ 3.48 µM,> 4.17 µM
Nc1nonc1C(=O)N/N=C/c1c(O)ccc2ccccc12,5.33 µM,> 4.17 µM
CC(C)(C)c1ccc(C(=O)O/N=C(\N)c2ccncc2)cc1,0.95 µM,> 41.7 µM
CCCC[n+]1cc(-c2ccccc2)nc(N2CCCCC2)n1,7.6 µM,> 41.7 µM
CNCCCC1Sc2ccccc2C(C)c2ccccc21 (stereo not drawn),4.88 µM,> 20.8 µM
O=C1c2cccc3c(N4CCOCC4)ccc(c23)C(=O)N1O,8.03 µM,> 41.7 µM
O=C1/C(=C/c2ccccc2)CCS(=O)(=O)c2ccccc21,5.55 µM,> 41.7 µM
CC(=O)NC(c1cccs1)c1ccc2cccnc2c1O (stereo not drawn),0.924 µM,0.984 µM
COc1ccc2c(c1)S/C(=C/C(=O)c1ccncc1)N2C,5.01 µM,> 41.7 µM

Structure (SMILES),IC50 [1],IC50 [2]
COc1ccc(OCC(=O)N/N=C(\C)c2ccccn2)cc1,5.26 µM,> 20.8 µM
O=C(Nc1c2ccccc2nc2ccccc12)c1ccncc1,1.2 µM,5.82 µM
O=S(=O)(Nc1cccc2cccnc12)c1ccccc1O,0.521 µM,> 10.4 µM
CCc1ccccc1-n1c(=O)oc2ccc(Cl)cc2c1=O,5.13 µM,> 4.17 µM
O=C(/C=C/c1ccccc1)ONC(=O)c1ccc(Cl)cc1,4.45 µM,> 20.8 µM
Cc1oc2c(O)c(O)ccc2c(=O)c1Oc1ccccc1F,0.133 µM,> 41.7 µM
NCCNCCC=C(c1ccc(F)cc1)c1ccc(F)cc1,0.265 µM,> 20.8 µM
COc1cc(OC)nc(-n2ncc(Cl)c(Cl)c2=O)n1,5.32 µM,4.53 µM
Cn1c2ccccc2c2nnc(N/N=C/c3ccccn3)nc21,0.52 µM,> 1.04 µM
Cc1cc(C)[n+]2nc3n(-c4ccccc4)c(C)cc(C)c-3c2n1,4.46 µM,> 41.7 µM
CCOC(=O)c1cnc2c(OC)cccc2c1NCCCO,8.61 µM,> 41.7 µM
CCn1c(Cc2nc3ccccc3n2CC)nc2ccccc21,3.87 µM,> 41.7 µM
COc1ccc(/C(N)=N/OC(=O)c2ccccc2Cl)cc1,1.21 µM,> 20.8 µM
Clc1cc2c(c3ncccc13)OCN(CC1CCCO1)C2 (stereo not drawn),6.81 µM,6.72 µM
NCCCCCOC(c1ccc(F)cc1)c1ccc(F)cc1,5.53 µM,> 41.7 µM
CN(C)c1ccc(/C=C/c2cc(-c3ccccc3)o[n+]2C)cc1,0.133 µM,> 2.08 µM
C(=C\c1ccc(OC2CN3CCC2CC3)cc1)/c1ccccc1 (stereo not drawn),5.31 µM,> 41.7 µM
Cc1ccc(Nc2cc(C)nc3c(C)c(C)cc(N)c23)c(C)c1,5.12 µM,> 41.7 µM
CC(=O)NC(c1ccccc1C)c1ccc2cccnc2c1O (stereo not drawn),0.655 µM,> 1.04 µM
O=C1C=C/C(=N\Nc2ccc3c(c2)OCCO3)c2cccnc21,1.43 µM,> 20.8 µM
CN(C)CCCC1(O)c2ccccc2C2(CC2)c2ccccc21,0.436 µM,> 10.4 µM
O=C(/C=C/c1ccccc1Cl)Nc1ccc2ccccc2c1,6.12 µM,> 41.7 µM
NCC(c1ccc(Cl)cc1)c1ccc(-c2ccccc2)cc1 (stereo not drawn),4.59 µM,> 41.7 µM
C/C(=N\NC(=O)c1ccc(Cl)c(Cl)c1)c1ccccn1,5.16 µM,> 41.7 µM
